Laboratory results published in PubChem BioAssay AID1769 (NMMLSC, 2009).
pEC50: −log10 of the molar value.

target: glutathione S-transferase (Schistosoma japonicum GST tag binding GSH beads); test: GST–glutathione bead interaction interference profiling – biochemical, multiplex beads, flow cytometry, profiling panel (AID 1769); conditions: flow cytometry fluorescence;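 note: target is a GST and green fluorescent protein fusion captured on glutathione beads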

| Compound | pEC50 |
| --- | --- |
| COc1ccc(N=C2S/C(=C\c3ccc(N4CCOCC4)o3)C(=O)N2CCc2c[nH]c3ccccc23)cc1 | 7.57 |
| C=CCNc1nc(=S)[nH]c2cc(OC)c(OC)cc12 | 4.88 |
| O=C(CSc1ccc2nnc(-c3ccncc3)n2n1)Nc1nccs1 | 4.45 |
| Cc1cc(-c2nnc3n2N=C(c2ccc(-c4ccccc4)cc2)CS3)n[nH]1 | 5.17 |
| COc1cc(N2CCCC2)c(OC)cc1/C=C(/C#N)c1cccc(F)c1 | 5.77 |
| CCOc1ccc2c(c1)c(N=NC(=N)N)c(O)n2C | 4.59 |
| COc1ccc(N/C=C/c2nc(SC)nnc2C)cc1 | 5.56 |
| O=S1(=O)N=C(N(CCO)/N=C/c2ccncc2)c2ccccc21 | 4.44 |
| COc1cccc2c(SCC(=O)N/N=C/c3ccc(O)cc3O)cc(C)nc12 | 4.34 |
| CC(C)NC(=S)N=Nc1c(O)[nH]c2ccc([N+](=O)[O-])cc12 | 5.84 |
| O=C(CSc1ccc2nnc(-c3cccs3)n2n1)N1CCCC1 | 5.88 |
| CCN1/C(=C/c2ccc3cc(C)ccc3[n+]2C)Sc2ccc3sccc3c21 | 4.68 |
| O=S1(=O)N=C(N(CCO)/N=C/c2ccccc2)c2ccccc21 | 4.28 |
| Cn1cccc1/C=C1\SC(=S)N(NC(=O)c2ccccc2Cl)C1=O | 4.29 |
| COc1cccc(C2CC(c3ccccc3)Nc3ncnn32)c1 (stereo not given) | 5.19 |
| COc1ccc(Nc2nc(-c3c(C)nc4ncccn34)cs2)cc1 | 5.08 |
| Cc1ccc(-c2csc3nc4c5ccccc5c(NCCCN5CCOCC5)nn4c(=O)c23)cc1 | 6.46 |
| COc1ccc(-c2cc(=O)c(C(=O)c3ccc(C)cc3)n[nH]2)cc1 | 5.39 |
| O=C(CNC(=O)Cc1ccccc1)N=Nc1c(O)n(Cc2ccc3c(c2)OCO3)c2ccccc12 | 4.92 |
| NS(=O)(=O)c1ccc(Nc2nc(-c3ccc(O)cc3O)cs2)cc1 | 5.64 |
| Cc1nc2ncccn2c1-c1csc(Nc2ccc(O)cc2)n1 | 6.58 |
| Cc1cc(/C=c2\sc3nc4ccccc4n3c2=O)c(C)n1-c1ccc(C(=O)O)cc1 | 4.32 |
| COc1ccc2o/c(=N/NC(=O)c3cccs3)c(C(N)=O)cc2c1 | 5.14 |

| Compound | pEC50 |
| --- | --- |
| Cc1nc(N/N=C/c2ccc(O)cc2)c2cnn(-c3ccccc3)c2n1 | 5.45 |
| O=c1[nH]c(=O)c2nnc(N/N=C\c3ccc(O)cc3)nc2[nH]1 | 5.42 |
| Nc1c(S(=O)(=O)c2cccs2)c2nc3ccccc3nc2n1/N=C/c1cccc(O)c1 | 6.45 |
| COc1ccc(C(=O)N/N=c2\oc3ccccc3cc2C(N)=O)cc1 | 5.34 |
| CC(C)(C)NC(=O)CCN(/N=C/c1ccc([N+](=O)[O-])o1)C1=NS(=O)(=O)c2ccccc21 | 5.47 |
| COC(=O)c1cc(NC(=O)c2cccc(Cl)c2)c(=O)oc1/C=C/Nc1cc(C)cc(C)c1 | 6.25 |
| NC(=S)N=Nc1c(O)[nH]c2cc(F)c(F)cc12 | 4.81 |
| CCN(c1ccc(N=Cc2c(O)n(Cc3ccc(OC)cc3)c(=O)c3ccccc23)cc1)C(C)C | 6.60 |
| COc1cccc(N=Nc2c(N)[nH]n3c(=O)c4c(nc23)CCCC4)c1 | 5.91 |
| COc1cc2c(cc1OC)-c1cc(NCc3ccccn3)nc(=O)n1CC2 | 5.71 |
| O=C(N/N=C/c1ccc2nccnc2c1)c1cccc([N+](=O)[O-])c1 | 5.07 |
| Cc1cc2[nH]c3c(c[n+](C)c4ccccc34)c2cc1C | 5.02 |
| CCOc1ccc(CCNc2ccc3nnc(-c4ccccc4)n3n2)cc1OCC | 5.64 |
| Cc1cc(C)cc(N2C(=O)NC(=O)/C(=C\C=C\c3ccco3)C2=O)c1 | 5.36 |
| CSc1nc(Cc2ccccc2)cc(=O)[nH]1 | 4.51 |
| O=C1/C(=C\c2ccc(-c3ccccc3Cl)o2)SC(=S)N1CC1CCCO1 (stereo not given) | 4.76 |
| COc1ccc(OC)c(S(=O)(=O)Nc2ccc(O)c(Sc3ncn[nH]3)c2)c1 | 5.36 |
| O=c1c2ccccc2nc2c3ccccc3c(NCc3cccnc3)nn12 | 6.46 |
| CC(C)(C)c1ccc(C(=O)CC(Sc2ccc(Cl)cc2)C(=O)O)cc1 (stereo not given) | 5.45 |
| NC(=S)N=Nc1c(O)[nH]c2c(Br)cc(Br)cc12 | 4.16 |
| COc1cc(/C=N/Nc2ncnc3sc4c(c23)CCC4)ccc1O | 4.84 |
| O=C1Nc2ccc(Br)cc2C12NNc1ccccc1O2 (stereo not given) | 5.62 |
